Laboratory results from patent publication US11180483B2, “Substituted reverse pyrimidine Bmi-1 inhibitors” (PTC Therapeutics, Inc., priority 2012, dated 2021).

What follows are molecules tested on Bmi-1 (assay: Sandwich ELISA Assay (Bmi-1 ELISA) in HT-1080 cells).
Type: cell-based
Procedure: Cell Seeding and Compound Treatment (Day 1):
HT-1080 cells were seeded at 8000 cells/well (50 μL) in 96-well tissue culture plates. After the cells became adherent (3-4 hours), 2× diluted stocks of test compounds in 50 μL DMEM containing 1% DMSO (final DMSO concentration was 0.5%) were added and the plates were incubated at 37° C. under 5% CO2 for 40-48 hours.
ELISA Plate First Antibody Preparation (Day 2):
The First Antibody (Millipore Mouse, monoclonal to mouse Bmi-1, clone F6, catalog #05-637) diluted to 2 μg/mL in PBS was added (100 μL) to each well of a Nunc MaxiSorp 96-well ELISA plate. The plate was covered with a plate seal and allowed to stand overnight.
Cell Lysate Preparation (Day 3):
Fresh 1× Lysis buffer was prepared on the day of the assay as follows: 1 mM EDTA, 150 mM NaCl, 0.5% Triton-X 100, 10 mM NaF, 20 mM B-Glycerophosphate, 1 mM DTT (in PBS, pH 7.2-7.4) and 1× HALT protease inhibitor cocktail (Pierce #78410).
The 1× Lysis Buffer (40 μL) was added to each well and the plate was shaken for 5-10 minutes on an orbital shaker to allow cell lysis, then diluent (1% BSA in PBS in 0.5% NP40) (100 μL) was added to each well.
A standard curve was prepared at the following Bmi-1 concentrations: 8000, 4000, 2000, 1000, 500, 250, 125, 0 pg/mL The Bmi-1 Recombinant Protein Standard (Novus Biologicals PCGF4 Recombinant Protein (P01), catalog #H00000648-P01) used to prepare the standard curve was stored at −80° C. On first thaw, the Bmi-1 Recombinant Protein Standard was diluted to […] in Blocking Buffer (1% BSA in PBS; BSA: Fisher Scientific Catalog #1600-100). Aliquots were taken and refrozen at −80° C. The aliquots may be kept at 4° C. and reused after first thaw, but only within 1-2 weeks. The Bmi-1 Recombinant Protein Standard contains a GST-fusion tag that appears around 70 Kda on Western Blot.
The prepared ELISA plate was washed 3× with Wash Buffer (0.05% Tween-20 in PBS). The final wash was removed from the plate and the plate was blotted dry. Blocking Buffer (300 μL) (1% BSA in PBS) was added to each well. The plate was covered with a plate seal and incubated at room temperature for 1 hour. The blocked plate was washed 3× with Wash Buffer, then the final wash was removed and the plate was blotted dry. The previously prepared samples and standards were added (100 μL/well) and the plate was covered with a plate seal and incubated at 4° C. overnight.
The prepared ELISA plate was removed from 4° C., incubated at room temperature for 30 minutes, then washed and blotted dry as previously described for Day 3. The Second Antibody (Cell Signaling Rabbit anti-Bmi-1, Cat #2830) diluted to 1:600 in Blocking Buffer was added (100 μL) to each well, except as needed for background control wells. The plate was covered with a plate seal and incubated for 1.5 hrs at room temperature.
The ELISA plate was washed and blotted dry as previously described. The Third Antibody (Cell Signaling HRP conjugated anti-rabbit IgG (CellSignaling, Cat #:7074) diluted to 1:300 in Blocking Buffer was added (100 μL) to each well, except as needed for background control wells. The plate was incubated for 1 hr at room temperature.
The plate was washed and blotted dry as previously described, then prepared TMB substrate (TMB substrate kit, Pierce catalog #34021) (prepared by mixing kit reagents 1:1) (100 μL) was added per well. The plate was incubated for 20-30 minutes at room temperature in the dark, then Stop Solution (2 M sulfuric acid in water) (50 μL) was added per well. The plates were read at OD450 (experimental) and OD570 (reference).
`CN(C)c1ccc(Nc2ccnc(-c3c(C(F)(F)F)nc4ccccn34)n2)cn1` [Cpd 31, N^2,N^2-dimethyl-N^5-{2-[2-(trifluoromethyl)imidazo[1,2-a]pyridin-3-yl]pyrimidin-4-yl]pyridine-2,5-diamine] gave an EC50 of 10 to 100 nM.
Molecule `FC(F)(F)c1ccc(Nc2ccnc(-c3c(C(F)(F)F)nc4ccc(Br)cn34)n2)cc1` [Cpd 32, 2-[6-bromo-2-(trifluoromethyl)imidazo[1,2-a]pyridin-3-yl]-N-[4-(trifluoromethyl)phenyl]pyrimidin-4-amine] has an EC50 of 100 to 3000 nM.
`COc1ccc(Nc2ccnc(-c3c(C(F)(F)F)nc4ccc(Br)cn34)n2)cc1` [Cpd 33, 2-[6-bromo-2-(trifluoromethyl)imidazo[1,2-a]pyridin-3-yl]-N-(4-methoxyphenyl)pyrimidin-4-amine] showed an EC50 of 10 to 100 nM.
`COc1ccc(Nc2ccnc(-c3c(C(F)(F)F)nc4ccccn34)n2)cc1F` [Cpd 34, N-(3-fluoro-4-methoxyphenyl)-2-[2-(trifluoromethyl)imidazo[1,2-a]pyridin-3-yl]pyrimidin-4-amine] showed an EC50 of 1 to 10 nM.
`COc1ccc(Nc2ccnc(-c3c(C(F)(F)F)nc4ccccn34)n2)cc1Cl` [Cpd 35, N-(3-chloro-4-methoxyphenyl)-2-[2-(trifluoromethyl)imidazo[1,2-a]pyridin-3-yl]pyrimidin-4-amine] gave an EC50 of 100 to 3000 nM.
`Cc1ccc(Nc2ccnc(-c3c(C(F)(F)F)nc4ccccn34)n2)cc1Cl` [Cpd 36, N-(3-chloro-4-methylphenyl)-2-[2-(trifluoromethyl)imidazo[1,2-a]pyridin-3-yl]pyrimidin-4-amine] was tested, and the EC50 was 10 to 100 nM.
For `CCOc1ccc(Nc2ccnc(-c3c(C(F)(F)F)nc4ccccn34)n2)cc1` [Cpd 37, N-(4-ethoxyphenyl)-2-[2-(trifluoromethyl)imidazo[1,2-a]pyridin-3-yl]pyrimidin-4-amine], the EC50 was 10 to 100 nM.
Molecule `CC(C)c1ccc(Nc2ccnc(-c3c(C(F)(F)F)nc4ccccn34)n2)cc1` [Cpd 38, N-[4-(propan-2-yl)phenyl]-2-[2-(trifluoromethyl)imidazo[1,2-a]pyridin-3-yl]pyrimidin-4-amine] has an EC50 of 100 to 3000 nM.
In the case of `FC(F)(F)c1nc2ccccn2c1-c1nccc(Nc2ccc(-n3cccn3)cc2)n1` [Cpd 39, N-[4-(1H-pyrazol-1-yl)phenyl]-2-[2-(trifluoromethyl)imidazo[1,2-a]pyridin-3-yl]pyrimidin-4-amine], the EC50 is reported as 100 to 3000 nM.
`COc1ccc(Nc2ccnc(-n3c(C)nc4ccccc43)n2)cc1Cl` [Cpd 40, N-(3-chloro-4-methoxyphenyl)-2-(2-methyl-1H-benzimidazol-1-yl)pyrimidin-4-amine] was tested, and the EC50 was 100 to 3000 nM.
`Cc1nc2ccccc2n1-c1nccc(Nc2ccc(C(F)(F)F)cc2)n1` [Cpd 41, 2-(2-methyl-1H-benzimidazol-1-yl)-N-[4-(trifluoromethyl)phenyl]pyrimidin-4-amine] showed an EC50 of 100 to 3000 nM.
For `COc1ccc(Nc2ccnc(-n3c(C(F)(F)F)nc4ccccc43)n2)cc1Cl` [Cpd 42, N-(3-chloro-4-methoxyphenyl)-2-[2-(trifluoromethyl)-1H-benzimidazol-1-yl]pyrimidin-4-amine], the EC50 was 10 to 100 nM.
Work on `Cc1ccc(Nc2nc(-c3c(C(F)(F)F)nc4ccccn34)ncc2F)cc1` [Cpd 43, 5-fluoro-N-(4-methylphenyl)-2-[2-(trifluoromethyl)imidazo[1,2-a]pyridin-3-yl]pyrimidin-4-amine] yielded an EC50 of 10 to 100 nM.
Work on `Cc1ccc(Nc2nc(-c3c(C(F)(F)F)nc4ccccn34)ncc2Cl)cc1` [Cpd 44, 5-chloro-N-(4-methylphenyl)-2-[2-(trifluoromethyl)imidazo[1,2-a]pyridin-3-yl]pyrimidin-4-amine] yielded an EC50 of 100 to 3000 nM.
`COc1ccc(Nc2ccnc(-c3c(C(F)(F)F)nc4cnccn34)n2)cc1` [Cpd 45, N-(4-methoxyphenyl)-2-[2-(trifluoromethyl)imidazo[1,2-a]pyrazin-3-yl]pyrimidin-4-amine] showed an EC50 of 100 to 3000 nM.
In the case of `FC(F)(F)c1ccc(Nc2ccnc(-c3c(C(F)(F)F)nc4cnccn34)n2)cc1` [Cpd 46, 2-[2-(trifluoromethyl)imidazo[1,2-a]pyrazin-3-yl]-N-[4-(trifluoromethyl)phenyl]pyrimidin-4-amine], the EC50 is reported as 100 to 3000 nM.
`FC(F)(F)c1nc2cnccn2c1-c1nccc(Nc2ccc(Cl)cc2)n1` [Cpd 47, N-(4-chlorophenyl)-2-[2-(trifluoromethyl)imidazo[1,2-a]pyrazin-3-yl]pyrimidin-4-amine] was tested, and the EC50 was 100 to 3000 nM.
`COc1ccc2nc(C(F)(F)F)c(-c3nccc(Nc4ccc(C(F)(F)F)cc4)n3)n2c1` [Cpd 48, 2-[6-methoxy-2-(trifluoromethyl)imidazo[1,2-a]pyridin-3-yl]-N-[4-(trifluoromethyl)phenyl]pyrimidin-4-amine] was tested, and the EC50 was 100 to 3000 nM.
`COc1ccc2nc(C(F)(F)F)c(-c3nccc(Nc4ccc(OC(F)(F)F)cc4)n3)n2c1` [Cpd 49, 2-[6-methoxy-2-(trifluoromethyl)imidazo[1,2-a]pyridin-3-yl]-N-[4-(trifluoromethoxy)phenyl]pyrimidin-4-amine] was tested, and the EC50 was 100 to 3000 nM.
With `COc1ccc(Nc2ccnc(-c3c(C(F)(F)F)nc4ccc(OC)cn34)n2)cc1` [Cpd 50, N-(4-methoxyphenyl)-2-[6-methoxy-2-(trifluoromethyl)imidazo[1,2-a]pyridin-3-yl]pyrimidin-4-amine] the EC50 was 10 to 100 nM.
`COc1ccc2nc(C(F)(F)F)c(-c3nccc(Nc4ccc(OC(F)F)cc4)n3)n2c1` [Cpd 51, N-[4-(difluoromethoxy)phenyl]-2-[6-methoxy-2-(trifluoromethyl)imidazo[1,2-a]pyridin-3-yl]pyrimidin-4-amine] gave an EC50 of 100 to 3000 nM.
Molecule `Cc1nc2ccccc2n1-c1nc(NCCO)cc(Nc2ccc(OC(F)F)cc2)n1` [Cpd 52, 2-{[6-{[4-(difluoromethoxy)phenyl]amino}-2-(2-methyl-1H-benzimidazol-1-yl)pyrimidin-4-yl]amino}ethanol] has an EC50 of 100 to 3000 nM.
Molecule `FC(F)Oc1ccc(Nc2ccnc(-c3c(C(F)(F)F)nc4cnccn34)n2)cc1` [Cpd 53, N-[4-(difluoromethoxy)phenyl]-2-[2-(trifluoromethyl)imidazo[1,2-a]pyrazin-3-yl]pyrimidin-4-amine] has an EC50 of 100 to 3000 nM.
`Fc1ccc2nc(C(F)(F)F)c(-c3nccc(Nc4ccc(C(F)(F)F)cc4)n3)n2c1` [Cpd 54, 2-[6-fluoro-2-(trifluoromethyl)imidazo[1,2-a]pyridin-3-yl]-N-[4-(trifluoromethyl)phenyl]pyrimidin-4-amine] was tested, and the EC50 was 100 to 3000 nM.
Work on `Fc1ccc2nc(C(F)(F)F)c(-c3nccc(Nc4ccc(OC(F)F)cc4)n3)n2c1` [Cpd 55, N-[4-(difluoromethoxy)phenyl]-2-[6-fluoro-2-(trifluoromethyl)imidazo[1,2-a]pyridin-3-yl]pyrimidin-4-amine] yielded an EC50 of 100 to 3000 nM.
In the case of `FC(F)(F)c1ccc(Nc2ccnc(-c3c(C(F)(F)F)nn4ccccc34)n2)cc1` [Cpd 56, N-[4-(trifluoromethyl)phenyl]-2-[2-(trifluoromethyl)pyrazolo[1,5-a]pyridin-3-yl]pyrimidin-4-amine], the EC50 is reported as 100 to 3000 nM.
`Cc1nc2ccccc2n1-c1nc(NCCO)cc(Nc2ccc(C(F)(F)F)cc2)n1` [Cpd 57, 2-{[2-(2-methyl-1H-benzimidazol-1-yl)-6-{[4-(trifluoromethyl)phenyl]amino}pyrimidin-4-yl]amino}ethanol] gave an EC50 of 100 to 3000 nM.
In the case of `COCCNc1cc(Nc2ccc(C(F)(F)F)cc2)nc(-n2c(C)nc3ccccc32)n1` [Cpd 58, N^4-(2-methoxyethyl)-2-(2-methyl-1H-benzimidazol-1-yl)-N^6-[4-(trifluoromethyl)phenyl]pyrimidine-4,6-diamine], the EC50 is reported as 100 to 3000 nM.
With `COCCNc1cc(Nc2ccc(OC(F)F)cc2)nc(-n2c(C)nc3ccccc32)n1` [Cpd 59, N^4-[4-(difluoromethoxy)phenyl]-N^6-(2-methoxyethyl)-2-(2-methyl-1H-benzimidazol-1-yl)pyrimidine-4,6-diamine] the EC50 was 100 to 3000 nM.
